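96-well plates; 48 h exposure; 5 concentrations. Endpoints by linear interpolation between flanking doses. Not reached: highest tested concentration assigned. The concentration for 50% growth inhibition is given as GI50. TGI is the concentration that stops growth completely.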
What was measured:
Experiment in all cases: inhibition of tumour cell growth, NCI panel, 48 h
[1] = system: OVCAR-3 ovarian
[2] = system: CCRF-CEM leukemia
[3] = system: T-47D breast
[4] = system: ACHN renal
[5] = system: OVCAR-5 ovarian
[6] = system: RPMI-8226 leukemia
[7] = system: NCI-H226 lung
[8] = system: UACC-62 melanoma
[9] = system: SW-620 colon
[10] = system: 786-0 renal

Structure (SMILES) | GI50 [1] | TGI [1] | GI50 [2] | GI50 [3] | GI50 [4] | TGI [4] | GI50 [5] | TGI [5] | GI50 [6] | TGI [6] | GI50 [7] | TGI [7] | GI50 [8] | TGI [8] | GI50 [9] | TGI [9] | GI50 [10] | TGI [10] | TGI [2] | TGI [3]
NC(=O)c1c(NC(=O)c2cccc(C(F)(F)F)c2)sc2c1CCC(=O)C2 | 0.364 µM | 1.34 µM | 0.163 µM | 0.274 µM | 0.322 µM | 1.05 µM | 0.83 µM | 9.42 µM | 0.127 µM | 0.745 µM | 5.37 µM | > 100 µM | 0.368 µM | 1.66 µM | 0.234 µM | 1.62 µM | 1.94 µM | > 100 µM | – | –
N#Cc1c(-c2ccc(Cl)cc2)csc1NC(=O)Nc1cccc(C(F)(F)F)c1 | 2.73 µM | 11.2 µM | 3.17 µM | 1.76 µM | 2.23 µM | 6.51 µM | 2.98 µM | 12.9 µM | 1.84 µM | 7 µM | 3.42 µM | 10.5 µM | 2.92 µM | 12 µM | 3.33 µM | 13.9 µM | 2 µM | 4.85 µM | 12 µM | 7.79 µM
COC(=O)C1=C(C(=O)OC)C(C(=O)OC)C(C(=O)OC)C(C(=O)OC)(C(=O)OC)C(C(=O)OC)=C1C(=O)OC (configuration not stated) | – | 28.9 µM | – | – | – | 28.4 µM | – | 35.3 µM | – | 10.5 µM | – | 25.1 µM | – | 31 µM | – | 16.8 µM | – | 26.3 µM | 8.72 µM | 50.8 µM
CC(=O)OC1Oc2cc(C)c(C)cc2-c2oc(=O)c(-c3ccccc3)cc21 (configuration not stated) | 0.114 µM | 0.355 µM | 0.364 µM | 0.352 µM | 1.34 µM | > 100 µM | 5.18 µM | > 100 µM | 0.287 µM | 0.969 µM | 2.77 µM | – | 0.289 µM | > 32.6 µM | 0.242 µM | > 100 µM | 0.429 µM | 24.8 µM | > 100 µM | > 68.1 µM
CCn1c(-c2nonc2N)nc2c(C#CC(C)(C)O)ncc(OC[C@@H]3CCCN3)c21 | 2.86 µM | 9.22 µM | 2.33 µM | 0.408 µM | 8.76 µM | > 25 µM | 10.6 µM | > 25 µM | 24.8 µM | > 25 µM | 8.27 µM | > 24 µM | 7.2 µM | > 25 µM | 6.84 µM | > 25 µM | 2.45 µM | > 25 µM | > 25 µM | > 25 µM
O=C(Nc1nc2ccc(F)cc2s1)c1cccnc1Nc1ccc(Cl)cc1Cl | 2.18 µM | 7.1 µM | 1.82 µM | 1.61 µM | 3.35 µM | 13.7 µM | 7.71 µM | 28.9 µM | 1.49 µM | 9.07 µM | 2.72 µM | 19.3 µM | 2.57 µM | 17.2 µM | 3.04 µM | 15.1 µM | 3.28 µM | 12.2 µM | 12.6 µM | 8.01 µM
COc1cccc(C2CC(=O)Nc3cc4c(cc32)CCC4)c1OC (configuration not stated) | 2.37 µM | 5.9 µM | 2.28 µM | 5.52 µM | 6.72 µM | > 84 µM | 7.67 µM | > 80.3 µM | 2.63 µM | 14.6 µM | 9.7 µM | 44.2 µM | 2.9 µM | 14.4 µM | 3.11 µM | > 46.2 µM | 4.84 µM | 27.9 µM | 7.08 µM | 52.3 µM
N=C(N)SCC(=O)O | – | > 100 µM | – | – | – | > 100 µM | – | > 100 µM | – | > 100 µM | – | > 100 µM | – | > 100 µM | – | > 100 µM | – | > 100 µM | > 100 µM | > 100 µM

Reference: PubChem BioAssay (NCI)
